From PubChem BioAssay (NCI)
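Values below derive from 48-hour exposures of cells grown in 96-well plates, with endpoints linearly interpolated between the two concentrations bracketing the appropriate inhibition level. GI50 = concentration required for 50% inhibition of growth. TGI: concentration producing complete growth inhibition.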

Assays:
Test in all cases: NCI tumour cell line growth inhibition, 48 h
SK-MEL-2 melanoma = test system: SK-MEL-2 melanoma
TK-10 renal = test system: TK-10 renal
SK-OV-3 ovarian = test system: SK-OV-3 ovarian
MALME-3M melanoma = test system: MALME-3M melanoma
UACC-62 melanoma = test system: UACC-62 melanoma
HL-60(TB) leukemia = test system: HL-60(TB) leukemia
UO-31 renal = test system: UO-31 renal
SNB-75 CNS = test system: SNB-75 CNS
OVCAR-5 ovarian = test system: OVCAR-5 ovarian
SR leukemia = test system: SR leukemia
NCI-H522 lung = test system: NCI-H522 lung
PC-3 prostate = test system: PC-3 prostate
KM12 colon = test system: KM12 colon
RPMI-8226 leukemia = test system: RPMI-8226 leukemia
HS 578T breast = test system: HS 578T breast
OVCAR-4 ovarian = test system: OVCAR-4 ovarian
U251 CNS = test system: U251 CNS
A549 NSCLC = test system: A549 NSCLC
NCI-H226 lung = test system: NCI-H226 lung
UACC-257 melanoma = test system: UACC-257 melanoma
HOP-92 NSCLC = test system: HOP-92 NSCLC
DU-145 prostate = test system: DU-145 prostate
786-0 renal = test system: 786-0 renal
RXF 393 renal = test system: RXF 393 renal
HT29 colon = test system: HT29 colon
HCT-116 colon = test system: HCT-116 colon
MOLT-4 leukemia = test system: MOLT-4 leukemia
COLO 205 colon = test system: COLO 205 colon
NCI/ADR-RES ovarian = test system: NCI/ADR-RES ovarian
SN12C renal = test system: SN12C renal
OVCAR-8 ovarian = test system: OVCAR-8 ovarian
ACHN renal = test system: ACHN renal
MCF7 breast = test system: MCF7 breast
MDA-MB-231 breast = test system: MDA-MB-231 breast
T-47D breast = test system: T-47D breast
SW-620 colon = test system: SW-620 colon
SF-295 CNS = test system: SF-295 CNS
BT-549 breast = test system: BT-549 breast
MDA-MB-435 = test system: MDA-MB-435
CCRF-CEM leukemia = test system: CCRF-CEM leukemia
LOX IMVI melanoma = test system: LOX IMVI melanoma
NCI-H460 lung = test system: NCI-H460 lung
CAKI-1 renal = test system: CAKI-1 renal
HOP-62 NSCLC = test system: HOP-62 NSCLC
SNB-19 CNS = test system: SNB-19 CNS
EKVX NSCLC = test system: EKVX NSCLC
SK-MEL-28 melanoma = test system: SK-MEL-28 melanoma
IGROV1 ovarian = test system: IGROV1 ovarian
SK-MEL-5 melanoma = test system: SK-MEL-5 melanoma
K-562 leukemia = test system: K-562 leukemia
SF-268 CNS = test system: SF-268 CNS
A498 renal = test system: A498 renal
NCI-H23 lung = test system: NCI-H23 lung
HCT-15 colon = test system: HCT-15 colon
M14 melanoma = test system: M14 melanoma
SF-539 CNS = test system: SF-539 CNS
HCC-2998 colon = test system: HCC-2998 colon

SMILES: Cn1ccnc1C(=O)/C=C/c1ccc(NC(=O)c2ccc(F)cc2)cc1
- GI50 (SK-MEL-2 melanoma): 7.96 µM
- TGI (SK-MEL-2 melanoma): > 33.3 µM
- GI50 (TK-10 renal): 10.3 µM
- TGI (TK-10 renal): > 33.3 µM
- GI50 (SK-OV-3 ovarian): 8.29 µM
- TGI (SK-OV-3 ovarian): > 33.3 µM
- GI50 (MALME-3M melanoma): 18.1 µM
- TGI (MALME-3M melanoma): > 33.3 µM
- GI50 (UACC-62 melanoma): 9.5 µM
- TGI (UACC-62 melanoma): > 33.3 µM
- GI50 (HL-60(TB) leukemia): 2.9 µM
- TGI (HL-60(TB) leukemia): 31.8 µM
- GI50 (UO-31 renal): 3.43 µM
- TGI (UO-31 renal): > 33.3 µM
- GI50 (SNB-75 CNS): 1.23 µM
- TGI (SNB-75 CNS): 28.7 µM
- GI50 (OVCAR-5 ovarian): 6.3 µM
- TGI (OVCAR-5 ovarian): > 33.3 µM
- GI50 (SR leukemia): 0.903 µM
- TGI (SR leukemia): > 33.3 µM
- GI50 (NCI-H522 lung): 5.52 µM
- TGI (NCI-H522 lung): 14.2 µM
- GI50 (PC-3 prostate): 5 µM
- TGI (PC-3 prostate): > 33.3 µM
- GI50 (KM12 colon): 1.22 µM
- TGI (KM12 colon): 10.9 µM
- GI50 (RPMI-8226 leukemia): 1.15 µM
- TGI (RPMI-8226 leukemia): 12.3 µM
- GI50 (HS 578T breast): 7.06 µM
- TGI (HS 578T breast): > 33.3 µM
- GI50 (OVCAR-4 ovarian): 6.37 µM
- TGI (OVCAR-4 ovarian): > 33.3 µM
- GI50 (U251 CNS): 2.92 µM
- TGI (U251 CNS): > 33.3 µM
- GI50 (A549 NSCLC): 6.75 µM
- TGI (A549 NSCLC): > 33.3 µM
- GI50 (NCI-H226 lung): 4.76 µM
- TGI (NCI-H226 lung): > 33.3 µM
- GI50 (UACC-257 melanoma): 17.9 µM
- TGI (UACC-257 melanoma): > 33.3 µM
- GI50 (HOP-92 NSCLC): 8.15 µM
- TGI (HOP-92 NSCLC): > 33.3 µM
- GI50 (DU-145 prostate): 1.33 µM
- TGI (DU-145 prostate): > 33.3 µM
- GI50 (786-0 renal): 6.82 µM
- TGI (786-0 renal): > 33.3 µM
- GI50 (RXF 393 renal): 3.33 µM
- TGI (RXF 393 renal): 15.3 µM
- GI50 (HT29 colon): 2.22 µM
- TGI (HT29 colon): > 33.3 µM
- GI50 (HCT-116 colon): 1.47 µM
- TGI (HCT-116 colon): 12.9 µM
- GI50 (MOLT-4 leukemia): 6.36 µM
- TGI (MOLT-4 leukemia): > 33.3 µM
- GI50 (COLO 205 colon): 3.39 µM
- TGI (COLO 205 colon): 17.8 µM
- GI50 (NCI/ADR-RES ovarian): 5.28 µM
- TGI (NCI/ADR-RES ovarian): > 33.3 µM
- GI50 (SN12C renal): 6.56 µM
- TGI (SN12C renal): > 33.3 µM
- GI50 (OVCAR-8 ovarian): 5.88 µM
- TGI (OVCAR-8 ovarian): > 33.3 µM
- GI50 (ACHN renal): 4.85 µM
- TGI (ACHN renal): 11.8 µM
- GI50 (MCF7 breast): 1.64 µM
- TGI (MCF7 breast): > 33.3 µM
- GI50 (MDA-MB-231 breast): 6.54 µM
- TGI (MDA-MB-231 breast): > 33.3 µM
- GI50 (T-47D breast): 2.02 µM
- TGI (T-47D breast): > 33.3 µM
- GI50 (SW-620 colon): 1.39 µM
- TGI (SW-620 colon): 8.51 µM
- GI50 (SF-295 CNS): 8.15 µM
- TGI (SF-295 CNS): > 33.3 µM
- GI50 (BT-549 breast): 1.53 µM
- TGI (BT-549 breast): 24.7 µM
- GI50 (MDA-MB-435): 3.84 µM
- TGI (MDA-MB-435): > 33.3 µM
- GI50 (CCRF-CEM leukemia): 1.46 µM
- TGI (CCRF-CEM leukemia): > 33.3 µM
- GI50 (LOX IMVI melanoma): 1.31 µM
- TGI (LOX IMVI melanoma): 5.55 µM
- GI50 (NCI-H460 lung): 1.79 µM
- TGI (NCI-H460 lung): 7.85 µM
- GI50 (CAKI-1 renal): 1.63 µM
- TGI (CAKI-1 renal): > 33.3 µM
- GI50 (HOP-62 NSCLC): 5.39 µM
- TGI (HOP-62 NSCLC): 26.8 µM
- GI50 (SNB-19 CNS): 4.96 µM
- TGI (SNB-19 CNS): > 33.3 µM
- GI50 (EKVX NSCLC): 6.27 µM
- TGI (EKVX NSCLC): > 33.3 µM
- GI50 (SK-MEL-28 melanoma): 10.1 µM
- TGI (SK-MEL-28 melanoma): > 33.3 µM
- GI50 (IGROV1 ovarian): 3.72 µM
- TGI (IGROV1 ovarian): > 33.3 µM
- GI50 (SK-MEL-5 melanoma): 17.6 µM
- TGI (SK-MEL-5 melanoma): > 33.3 µM
- GI50 (K-562 leukemia): 1.1 µM
- TGI (K-562 leukemia): > 33.3 µM
- GI50 (SF-268 CNS): 4.94 µM
- TGI (SF-268 CNS): > 33.3 µM
- GI50 (A498 renal): 5.68 µM
- TGI (A498 renal): 17.1 µM
- GI50 (NCI-H23 lung): 5.89 µM
- TGI (NCI-H23 lung): > 33.3 µM
- GI50 (HCT-15 colon): 1.38 µM
- TGI (HCT-15 colon): 12.7 µM
- GI50 (M14 melanoma): 8.52 µM
- TGI (M14 melanoma): > 33.3 µM
- GI50 (SF-539 CNS): 2.5 µM
- TGI (SF-539 CNS): 10.5 µM
- GI50 (HCC-2998 colon): 6.99 µM
- TGI (HCC-2998 colon): > 33.3 µM
